Organism: Rattus norvegicus
Assay: DrugMatrix - Regimen: Daily Repeat
Format: toxicity, organism-based, Sprague-Dawley
Set-up: regimen Daily Repeat, gender Male, age 6-8 weeks
Details: in vivo, po, route oral GAVAGE, vehicle 100 % WATER; for ABSOLUTE BASOPHIL / ABSOLUTE EOSINOPHIL / ABSOLUTE LYMPHOCYTE / ABSOLUTE MONOCYTE / ABSOLUTE SEGMENTED NEUTROPHIL / BASOPHIL / EOSINOPHIL / ERYTHROCYTE COUNT / HEMATOCRIT / HEMOGLOBIN / LEUKOCYTE COUNT / LYMPHOCYTE / MEAN CORPUSCULAR HEMOGLOBIN / MEAN CORPUSCULAR HEMOGLOBIN CONCENTRATION / MEAN CORPUSCULAR VOLUME / MONOCYTE / NEUTROPHIL / NUCLEATED RED BLOOD CELLS / PLATELET COUNT: tissue Blood; for ALANINE AMINOTRANSFERASE / ALBUMIN / ALKALINE PHOSPHATASE / ASPARTATE AMINOTRANSFERASE / BLOOD UREA NITROGEN / CARBON DIOXIDE / CHLORIDE / CHOLESTEROL / CREATINE PHOSPHOKINASE / CREATININE / GLUCOSE / LACTATE DEHYDROGENASE / LIPASE / PHOSPHORUS / POTASSIUM / SODIUM / TOTAL BILIRUBIN / TOTAL PROTEIN / URIC ACID: tissue Plasma
[1] = 0 mg/kg, 72 h, dose level Control, time 3 day
[2] = 0 mg/kg, 120 h, dose level Control, time 5 day
[3] = […], 72 h, dose 0.025 mg/Kg, dose level Low, time 3 day
[4] = […], 72 h, dose 0.25 mg/Kg, dose level High, time 3 day

C[C@@H]1C[C@@H]([C@H](O)CC2CC(=O)NC(=O)C2)C(=O)[C@@H](C)C1 [CYCLOHEXIMIDE]
ABSOLUTE BASOPHIL [1]: 0 CELLS/uL
ABSOLUTE EOSINOPHIL [1]: 25 CELLS/uL
ABSOLUTE LYMPHOCYTE [1]: 14357 CELLS/uL
ABSOLUTE MONOCYTE [1]: 456.33 CELLS/uL
ABSOLUTE SEGMENTED NEUTROPHIL [1]: 1461.67 CELLS/uL
BASOPHIL [1]: 0%
EOSINOPHIL [1]: 0.17%
ERYTHROCYTE COUNT [1]: 5.85 x10E6/uL
HEMATOCRIT [1]: 37.62%
HEMOGLOBIN [1]: 13.87 G/DL
LEUKOCYTE COUNT [1]: 16.3 x10E3/uL
LYMPHOCYTE [1]: 88%
MEAN CORPUSCULAR HEMOGLOBIN [1]: 23.68 pg
MEAN CORPUSCULAR HEMOGLOBIN CONCENTRATION [1]: 36.88 G/DL
MEAN CORPUSCULAR VOLUME [1]: 64.23 fL
MONOCYTE [1]: 2.83%
NEUTROPHIL [1]: 9%
NUCLEATED RED BLOOD CELLS [1]: 0 /100WBC
PLATELET COUNT [1]: 1125.33 x10E3/uL
ALANINE AMINOTRANSFERASE [1]: 49.67 u/L
ALBUMIN [1]: 4.23 G/DL
ALKALINE PHOSPHATASE [1]: 400.83 u/L
ASPARTATE AMINOTRANSFERASE [1]: 89.17 u/L
BLOOD UREA NITROGEN [1]: 16 mg/dL
CARBON DIOXIDE [1]: 31.83 mmol/L
CHLORIDE [1]: 99 MEQ/L
CHOLESTEROL [1]: 76 mg/dL
CREATINE PHOSPHOKINASE [1]: 777.67 u/L
CREATININE [1]: 0.22 mg/dL
GLUCOSE [1]: 158.33 mg/dL
LACTATE DEHYDROGENASE [1]: 186.17 u/L
LIPASE [1]: 9.33 u/L
PHOSPHORUS [1]: 12.95 mg/dL
POTASSIUM [1]: 7.01 MEQ/L
SODIUM [1]: 141.53 MEQ/L
TOTAL BILIRUBIN [1]: 0.18 mg/dL
TOTAL PROTEIN [1]: 6.08 G/DL
URIC ACID [1]: 1.77 mg/dL
ABSOLUTE BASOPHIL [2]: 0 CELLS/uL
ABSOLUTE EOSINOPHIL [2]: 0 CELLS/uL
ABSOLUTE LYMPHOCYTE [2]: 8994.5 CELLS/uL
ABSOLUTE MONOCYTE [2]: 122.33 CELLS/uL
ABSOLUTE SEGMENTED NEUTROPHIL [2]: 666.5 CELLS/uL
BASOPHIL [2]: 0%
EOSINOPHIL [2]: 0%
ERYTHROCYTE COUNT [2]: 5.74 x10E6/uL
HEMATOCRIT [2]: 35.17%
HEMOGLOBIN [2]: 13.28 G/DL
LEUKOCYTE COUNT [2]: 9.78 x10E3/uL
LYMPHOCYTE [2]: 92.33%
MEAN CORPUSCULAR HEMOGLOBIN [2]: 23.15 pg
MEAN CORPUSCULAR HEMOGLOBIN CONCENTRATION [2]: 37.8 G/DL
MEAN CORPUSCULAR VOLUME [2]: 61.27 fL
MONOCYTE [2]: 1.33%
NEUTROPHIL [2]: 6.33%
NUCLEATED RED BLOOD CELLS [2]: 0 /100WBC
PLATELET COUNT [2]: 1117 x10E3/uL
ALANINE AMINOTRANSFERASE [2]: 47.83 u/L
ALBUMIN [2]: 4.33 G/DL
ALKALINE PHOSPHATASE [2]: 414.5 u/L
ASPARTATE AMINOTRANSFERASE [2]: 77.5 u/L
BLOOD UREA NITROGEN [2]: 17 mg/dL
CARBON DIOXIDE [2]: 32.33 mmol/L
CHLORIDE [2]: 99.33 MEQ/L
CHOLESTEROL [2]: 76.33 mg/dL
CREATINE PHOSPHOKINASE [2]: 363.67 u/L
CREATININE [2]: 0.25 mg/dL
GLUCOSE [2]: 173.5 mg/dL
LACTATE DEHYDROGENASE [2]: 129.33 u/L
LIPASE [2]: 9.17 u/L
PHOSPHORUS [2]: 11.52 mg/dL
POTASSIUM [2]: 5.73 MEQ/L
SODIUM [2]: 143.85 MEQ/L
TOTAL BILIRUBIN [2]: 0.2 mg/dL
TOTAL PROTEIN [2]: 6.43 G/DL
URIC ACID [2]: 0.97 mg/dL
ABSOLUTE BASOPHIL [3]: 0 CELLS/uL
ABSOLUTE EOSINOPHIL [3]: 0 CELLS/uL
ABSOLUTE LYMPHOCYTE [3]: 12322.33 CELLS/uL
ABSOLUTE MONOCYTE [3]: 322 CELLS/uL
ABSOLUTE SEGMENTED NEUTROPHIL [3]: 1589 CELLS/uL
BASOPHIL [3]: 0%
EOSINOPHIL [3]: 0%
ERYTHROCYTE COUNT [3]: 5.38 x10E6/uL
HEMATOCRIT [3]: 34.5%
HEMOGLOBIN [3]: 12.73 G/DL
LEUKOCYTE COUNT [3]: 14.23 x10E3/uL
LYMPHOCYTE [3]: 86.67%
MEAN CORPUSCULAR HEMOGLOBIN [3]: 23.63 pg
MEAN CORPUSCULAR HEMOGLOBIN CONCENTRATION [3]: 36.93 G/DL
MEAN CORPUSCULAR VOLUME [3]: 64 fL
MONOCYTE [3]: 2.33%
NEUTROPHIL [3]: 11%
NUCLEATED RED BLOOD CELLS [3]: 0 /100WBC
PLATELET COUNT [3]: 1165.33 x10E3/uL
ABSOLUTE BASOPHIL [4]: 0 CELLS/uL
ABSOLUTE EOSINOPHIL [4]: 0 CELLS/uL
ABSOLUTE LYMPHOCYTE [4]: 15128.33 CELLS/uL
ABSOLUTE MONOCYTE [4]: 349 CELLS/uL
ABSOLUTE SEGMENTED NEUTROPHIL [4]: 956 CELLS/uL
BASOPHIL [4]: 0%
EOSINOPHIL [4]: 0%
ERYTHROCYTE COUNT [4]: 5.63 x10E6/uL
HEMATOCRIT [4]: 36.7%
HEMOGLOBIN [4]: 13.27 G/DL
LEUKOCYTE COUNT [4]: 16.43 x10E3/uL
LYMPHOCYTE [4]: 91.67%
MEAN CORPUSCULAR HEMOGLOBIN [4]: 23.6 pg
MEAN CORPUSCULAR HEMOGLOBIN CONCENTRATION [4]: 36.17 G/DL
MEAN CORPUSCULAR VOLUME [4]: 65.3 fL
MONOCYTE [4]: 2%
NEUTROPHIL [4]: 6.33%
NUCLEATED RED BLOOD CELLS [4]: 0 /100WBC
PLATELET COUNT [4]: 1150.67 x10E3/uL

Reference: ChEMBL document CHEMBL3885881, “DrugMatrix”
